From patent publication US11034702B2, “Thienoisoquinolines and their derivatives for the treatment of cancer” (VALORBEC, SOCIÉTÉ EN COMMANDITE, priority 2016, dated 2021)

What was measured:
HeLa cells = experiment: Mitotic arrest (percentage of cells in mitosis) in HeLa cells; format: cell-based, human
Description: There were more rounded mitotic cells after C75 treatment in comparison to the control. FIG. 1B) is a line graph showing the percentage of HeLa and HFF1 cells in mitosis after treatment with various concentrations of C75 for 8 hours. The bars indicate standard deviation. FIG. 1C) is a series of images showing cells that were fixed and co-stained for tubulin (microtubules) and DAPI (DNA). Treatment of HeLa cells with 300 nM C75 caused the mitotic spindles to be disorganized, while they were not affected in HFF1 cells. […] The scale bar for the cells is 10 μm. FIG. 1D) is a cartoon schematic showing the key features of a metaphase cell.
(§1) FIG. 2A) is a line graph showing the percentage of HCT116 (p53−/−) cells, A549 cells, HeLa cells and H1299 cells in mitosis after treatment with various concentrations of C75 for one population doubling time. All of the cell lines show an increase in the proportion of mitotic cells after treatment with 200 nM C75. The bars indicate standard deviation. […] While the mitotic spindles were not dramatically altered by C75 in HFF1 cells, they were monopolar (as shown) or fragmented in the other cell types. […] The mitotic spindles were more strongly fragmented after C75 treatment in these cells vs. the cells in FIG. 2B). […] While mitotic spindles recovered bipolarity after removing nocodazole, they remained multipolar after removing C75. FIG. 2F) is a series of time-lapse images of a live HeLa cell expressing GFP:tubulin after treatment with C75 as shown in 2D) and 2E). The scale bar for all cells is 10 μm. FIG. 2G) is a schematic showing the putative target for C75. Healthy cells have two centrosomes that separate and form a bipolar spindle, while cancer cells have aberrant centrosomes that cluster to form ‘pseudo’ bipolar spindles, and C75 may target this process and their integrity.
FIG. 3A) is a line graph showing the percentage of mitotic HeLa or HFF1 cells treated with a range of paclitaxel (Taxol™; tubulin-targeting drug) concentrations+/−C75 as indicated. The bars indicate standard deviation. […]

[1] = tested on: HeLa (cervical adenocarcinoma) cells; experiment: IC50 (viability) in HeLa cells; format: cell-based, human
Description: (§2) 19 variants with different structural modifications have been made. […] In particular, it is shown that C75 causes death in multiple cancer cells with IC50 values in the 100 nM range, including breast cancers (MCF7, BT549), lung cancer (A549), colorectal cancer (HCT116) in addition to HeLa cells (cervical cancer).

[2] = tested on: HFF1 (fibroblast) non-cancer cells; experiment: IC50 (viability) in HFF1 non-cancer cells; format: cell-based; conditions: Homo sapiens; HFF-1 non-cancer cells
Description: as §2

[3] = tested on: H1299 (non-small cell lung cancer) cells; experiment: Mitotic arrest (percentage of cells in mitosis) in H1299 cells; format: cell-based, human; conditions: H1299, least responsive line
Description: as §1, with “Healthy cells have two centrosomes that separate and form a bipolar spindle, while cancer cells have aberrant centrosomes that cluster to form ‘pseudo’ bipolar spindles, and C75 may target this process and their integrity.” left out
C75 was also tested for efficacy in different cancer cell lines. […] To further assess the role of C75 in affecting centrosomes, HeLa cells were treated with C75 for a short period of time (5 minutes), then C75 was removed and the cells were analyzed for spindle phenotypes (schematic in FIG. 2D). […]

## COc1ccc(S(=O)(=O)N2Cc3ccccc3-c3sc(Br)cc32)cc1 [Compound C75]
HeLa cells; HeLa vs. HFF1 cells, percentage of mitotic cells, tubulin drug +/- C75
  effect of C75 on selectivity of paclitaxel and nocodazole: enhances the selectivity
HeLa cells; HeLa, within one population doubling time
  concentration causing mitotic arrest: 100 to 200 nM
HeLa cells; nanomolar concentrations, 8 hours
  selectivity of mitotic arrest, HeLa vs. HFF1: selectively causes mitotic arrest
[1]; Homo sapiens, HeLa cells, cells printed in nM
  IC50: 27 nM
[1]; comparison of Table 3 IC50 values, cancer vs. non-cancer cells
  efficacy (effect on viability) in cancer cells vs. non-cancer cells: higher efficacy
[2]
  IC50: 467 nM
[3]
  concentration at which mitotic cells increase: 200 nM
